From publication PMC9898036, “VIP152 is a selective CDK9 inhibitor with pre-clinical in vitro and in vivo efficacy in chronic lymphocytic leukemia” (Leukemia, 2022)
Read-outs that look alike come from different tables or passages of the source.

Columns and labels:
Experiment in all cases: DiscoverX KINOMEscan kinase profiling (468 assays)
Type in all cases: binding
human kinome [1] = target: human kinome (Homo sapiens, UniProt P43403); settings: kinase ZAP70 (Entrez ZAP70); compound concentration 1000 nM; read-out: Percent Control
How it was run: (§1)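 DNA-tagged kinases competed for immobilized biotinylated ligands on streptavidin magnetic beads, with bound kinase quantified by qPCR. VIP152 in DMSO was tested against a DMSO control.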

human kinome [2] = target: human kinome (Homo sapiens, UniProt Q13523); settings: read-out: Percent Control
How it was run: as §1

human kinome [3] = target: human kinome (Homo sapiens, UniProt P51451); settings: BLK; 100 nM; read-out: Percent Control
How it was run: as §1

human kinome [4] = target: human kinome (Homo sapiens, UniProt Q9H0K1); settings: kinase SIK2 (Entrez SIK2); compound concentration 1000 nM; read-out: Percent Control
How it was run: as §1

human kinome [5] = target: human kinome (Homo sapiens, UniProt Q02156); settings: read-out: Percent Control
How it was run: as §1

human kinome [6] = target: human kinome (Homo sapiens, UniProt Q9UPE1); settings: kinase SRPK3 (Entrez SRPK3); compound concentration 1000 nM; read-out: Percent Control
How it was run: as §1

human kinome [7] = target: human kinome (Homo sapiens, UniProt P54764); settings: EPHA4; 100 nM; read-out: Percent Control
How it was run: as §1

human kinome [8] = target: human kinome (Homo sapiens, UniProt P15056); settings: BRAF; 100 nM; read-out: Percent Control
How it was run: as §1

human kinome [9] = target: human kinome (Homo sapiens, UniProt Q9Y616); settings: IRAK3; 100 nM; read-out: Percent Control
How it was run: as §1

human kinome [10] = target: human kinome (Homo sapiens, UniProt P00533, T790M); settings: EGFR(T790M); 100 nM; read-out: Percent Control
How it was run: as §1

human kinome [11] = target: human kinome (Homo sapiens, UniProt P78368); settings: CSNK1G2; 100 nM; read-out: Percent Control
How it was run: as §1

human kinome [12] = target: human kinome (Homo sapiens, UniProt Q13237); settings: read-out: Percent Control
How it was run: as §1

human kinome [13] = target: human kinome (Homo sapiens, UniProt P36897); settings: kinase TGFBR1 (Entrez TGFBR1); compound concentration 1000 nM; read-out: Percent Control
How it was run: as §1

human kinome [14] = target: human kinome (Homo sapiens, UniProt Q2M2I8); settings: AAK1; 100 nM; read-out: Percent Control
How it was run: as §1

human kinome [15] = target: human kinome (Homo sapiens, UniProt Q9H1R3); settings: read-out: Percent Control
How it was run: as §1

human kinome [16] = target: human kinome (Homo sapiens, UniProt Q52WX2); settings: kinase SBK1 (Entrez SBK1); compound concentration 1000 nM; read-out: Percent Control
How it was run: as §1

human kinome [17] = target: human kinome (Homo sapiens, UniProt Q13873); settings: BMPR2; 100 nM; read-out: Percent Control
How it was run: as §1

human kinome [18] = target: human kinome (Homo sapiens, UniProt P42685); settings: FRK; 100 nM; read-out: Percent Control
How it was run: as §1

human kinome [19] = target: human kinome (Homo sapiens, UniProt O00750); settings: read-out: Percent Control
How it was run: as §1

human kinome [20] = target: human kinome (Homo sapiens, UniProt Q96J92); settings: kinase WNK4 (Entrez WNK4); compound concentration 1000 nM; read-out: Percent Control
How it was run: as §1

human kinome [21] = target: human kinome (Homo sapiens, UniProt O43353); settings: kinase RIPK2 (Entrez RIPK2); compound concentration 1000 nM; read-out: Percent Control
How it was run: as §1

human kinome [22] = target: human kinome (Homo sapiens, UniProt P54756); settings: EPHA5; 100 nM; read-out: Percent Control
How it was run: as §1

human kinome [23] = target: human kinome (Homo sapiens, UniProt Q86UX6); settings: kinase YANK3 (Entrez STK32C); compound concentration 1000 nM; read-out: Percent Control
How it was run: as §1

human kinome [24] = target: human kinome (Homo sapiens, UniProt Q9Y3S1); settings: kinase WNK2 (Entrez WNK2); compound concentration 1000 nM; read-out: Percent Control
How it was run: as §1

human kinome [25] = target: human kinome (Homo sapiens, UniProt P36896); settings: ACVR1B; 100 nM; read-out: Percent Control
How it was run: as §1

human kinome [26] = target: human kinome (Homo sapiens, UniProt P51812); settings: compound concentration 1000 nM, read-out: Percent Control
How it was run: as §1

human kinome [27] = target: human kinome (Homo sapiens, UniProt Q96SB4); settings: kinase SRPK1 (Entrez SRPK1); compound concentration 1000 nM; read-out: Percent Control
How it was run: as §1

human kinome [28] = target: human kinome (Homo sapiens, UniProt P51956); settings: read-out: Percent Control
How it was run: as §1

human kinome [29] = target: human kinome (Homo sapiens, UniProt P36888, K663Q); settings: FLT3(K663Q); 100 nM; read-out: Percent Control
How it was run: as §1

human kinome (Homo sapiens, UniProt Q13523), sequence (Q13523 whole entry): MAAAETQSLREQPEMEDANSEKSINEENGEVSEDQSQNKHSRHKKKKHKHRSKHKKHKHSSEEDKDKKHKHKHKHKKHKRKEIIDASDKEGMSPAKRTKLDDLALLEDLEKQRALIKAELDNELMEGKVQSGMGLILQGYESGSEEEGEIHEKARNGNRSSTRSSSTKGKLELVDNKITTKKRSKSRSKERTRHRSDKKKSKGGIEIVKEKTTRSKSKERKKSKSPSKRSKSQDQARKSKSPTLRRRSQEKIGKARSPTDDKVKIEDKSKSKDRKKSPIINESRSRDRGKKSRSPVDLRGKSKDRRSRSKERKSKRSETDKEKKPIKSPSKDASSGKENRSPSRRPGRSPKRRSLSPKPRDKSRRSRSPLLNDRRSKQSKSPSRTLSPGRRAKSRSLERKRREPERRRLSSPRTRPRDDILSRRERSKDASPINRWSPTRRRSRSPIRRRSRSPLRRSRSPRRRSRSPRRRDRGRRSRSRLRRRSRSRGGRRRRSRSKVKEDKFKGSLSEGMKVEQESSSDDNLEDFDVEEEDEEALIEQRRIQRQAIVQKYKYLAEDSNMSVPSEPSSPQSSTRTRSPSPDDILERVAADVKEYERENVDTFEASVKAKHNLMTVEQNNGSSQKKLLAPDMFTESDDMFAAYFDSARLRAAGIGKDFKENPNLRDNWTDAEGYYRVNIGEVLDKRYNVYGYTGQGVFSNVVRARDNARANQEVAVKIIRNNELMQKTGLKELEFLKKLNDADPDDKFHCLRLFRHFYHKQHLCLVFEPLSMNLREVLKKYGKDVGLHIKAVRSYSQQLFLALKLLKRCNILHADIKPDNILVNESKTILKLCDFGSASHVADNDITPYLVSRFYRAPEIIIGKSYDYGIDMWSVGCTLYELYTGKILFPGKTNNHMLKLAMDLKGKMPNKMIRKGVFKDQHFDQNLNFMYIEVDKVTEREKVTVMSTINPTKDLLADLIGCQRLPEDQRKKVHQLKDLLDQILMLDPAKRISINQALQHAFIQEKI
human kinome (Homo sapiens, UniProt Q02156), sequence (Q02156 whole entry): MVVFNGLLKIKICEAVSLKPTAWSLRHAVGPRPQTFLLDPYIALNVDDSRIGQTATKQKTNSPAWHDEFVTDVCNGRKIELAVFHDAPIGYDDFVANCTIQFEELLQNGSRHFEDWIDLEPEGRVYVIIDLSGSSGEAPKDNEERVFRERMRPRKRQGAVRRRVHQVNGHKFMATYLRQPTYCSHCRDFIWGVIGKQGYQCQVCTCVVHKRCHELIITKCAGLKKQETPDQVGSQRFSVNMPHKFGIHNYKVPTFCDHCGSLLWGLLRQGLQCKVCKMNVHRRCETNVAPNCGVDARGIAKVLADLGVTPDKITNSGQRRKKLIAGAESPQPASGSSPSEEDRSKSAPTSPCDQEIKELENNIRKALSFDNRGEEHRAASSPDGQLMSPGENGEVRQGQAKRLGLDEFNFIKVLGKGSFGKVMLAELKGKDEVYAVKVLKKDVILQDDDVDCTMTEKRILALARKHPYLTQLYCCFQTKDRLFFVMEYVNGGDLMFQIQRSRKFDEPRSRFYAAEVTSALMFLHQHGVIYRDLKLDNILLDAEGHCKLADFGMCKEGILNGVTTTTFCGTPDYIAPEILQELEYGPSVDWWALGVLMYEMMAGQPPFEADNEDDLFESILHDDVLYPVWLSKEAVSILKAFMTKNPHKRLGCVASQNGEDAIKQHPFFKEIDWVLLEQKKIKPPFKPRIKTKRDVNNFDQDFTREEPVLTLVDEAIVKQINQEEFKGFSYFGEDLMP
human kinome (Homo sapiens, UniProt Q13237), sequence (Q13237 whole entry): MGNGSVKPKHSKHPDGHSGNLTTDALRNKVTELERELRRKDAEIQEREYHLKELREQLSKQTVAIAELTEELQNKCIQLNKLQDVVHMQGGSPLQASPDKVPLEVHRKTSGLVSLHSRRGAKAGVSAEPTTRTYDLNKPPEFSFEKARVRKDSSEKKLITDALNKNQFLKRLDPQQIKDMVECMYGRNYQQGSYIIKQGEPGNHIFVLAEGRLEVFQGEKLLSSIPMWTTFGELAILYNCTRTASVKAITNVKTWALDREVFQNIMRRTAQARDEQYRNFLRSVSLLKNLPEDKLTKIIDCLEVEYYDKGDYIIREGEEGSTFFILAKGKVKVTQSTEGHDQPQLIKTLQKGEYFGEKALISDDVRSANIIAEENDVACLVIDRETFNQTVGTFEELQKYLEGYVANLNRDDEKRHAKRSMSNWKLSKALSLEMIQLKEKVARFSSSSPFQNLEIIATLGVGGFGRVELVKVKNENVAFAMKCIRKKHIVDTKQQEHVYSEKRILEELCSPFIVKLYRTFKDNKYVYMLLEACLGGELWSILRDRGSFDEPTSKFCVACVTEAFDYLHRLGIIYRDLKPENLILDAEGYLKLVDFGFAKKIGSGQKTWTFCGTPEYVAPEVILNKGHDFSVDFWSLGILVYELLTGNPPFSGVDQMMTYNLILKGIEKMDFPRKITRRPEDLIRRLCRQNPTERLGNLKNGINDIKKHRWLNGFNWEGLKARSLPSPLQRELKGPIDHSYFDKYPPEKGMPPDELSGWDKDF
human kinome (Homo sapiens, UniProt P51812), sequence (P51812 whole entry): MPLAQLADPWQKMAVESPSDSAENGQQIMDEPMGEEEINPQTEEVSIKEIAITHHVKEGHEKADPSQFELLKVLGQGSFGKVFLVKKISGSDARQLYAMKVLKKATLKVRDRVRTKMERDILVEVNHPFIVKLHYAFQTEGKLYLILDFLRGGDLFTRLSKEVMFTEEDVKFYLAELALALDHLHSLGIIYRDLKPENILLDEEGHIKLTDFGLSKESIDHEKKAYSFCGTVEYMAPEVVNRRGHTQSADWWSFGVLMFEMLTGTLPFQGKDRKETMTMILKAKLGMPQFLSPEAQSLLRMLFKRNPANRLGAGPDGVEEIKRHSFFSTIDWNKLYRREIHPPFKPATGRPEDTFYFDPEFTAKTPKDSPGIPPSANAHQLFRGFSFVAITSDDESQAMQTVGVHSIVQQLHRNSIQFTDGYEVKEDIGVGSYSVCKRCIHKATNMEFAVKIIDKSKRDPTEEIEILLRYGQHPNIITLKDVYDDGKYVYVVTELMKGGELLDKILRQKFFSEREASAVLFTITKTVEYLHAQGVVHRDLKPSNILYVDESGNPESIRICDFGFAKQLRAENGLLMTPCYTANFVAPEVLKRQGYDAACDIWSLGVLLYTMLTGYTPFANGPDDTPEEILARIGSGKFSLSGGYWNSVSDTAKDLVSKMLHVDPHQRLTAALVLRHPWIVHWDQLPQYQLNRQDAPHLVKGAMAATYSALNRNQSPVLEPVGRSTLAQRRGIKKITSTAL
human kinome (Homo sapiens, UniProt Q9H1R3), sequence (Q9H1R3 whole entry): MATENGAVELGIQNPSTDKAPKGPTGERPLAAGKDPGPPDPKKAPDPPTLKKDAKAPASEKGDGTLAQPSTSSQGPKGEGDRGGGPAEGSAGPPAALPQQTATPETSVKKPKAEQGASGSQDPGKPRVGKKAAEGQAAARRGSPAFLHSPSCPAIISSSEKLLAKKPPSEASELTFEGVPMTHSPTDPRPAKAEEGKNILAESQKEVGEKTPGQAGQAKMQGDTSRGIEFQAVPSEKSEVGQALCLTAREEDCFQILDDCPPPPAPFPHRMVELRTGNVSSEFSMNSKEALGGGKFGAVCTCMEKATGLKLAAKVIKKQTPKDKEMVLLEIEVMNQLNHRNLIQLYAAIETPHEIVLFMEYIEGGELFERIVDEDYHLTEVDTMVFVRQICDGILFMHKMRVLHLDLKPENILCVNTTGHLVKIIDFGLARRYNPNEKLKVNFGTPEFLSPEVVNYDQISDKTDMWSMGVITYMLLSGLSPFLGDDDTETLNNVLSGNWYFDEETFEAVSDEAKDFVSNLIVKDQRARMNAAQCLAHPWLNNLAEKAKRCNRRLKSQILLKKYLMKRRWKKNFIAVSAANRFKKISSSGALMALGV
human kinome (Homo sapiens, UniProt P51956), sequence (P51956 whole entry): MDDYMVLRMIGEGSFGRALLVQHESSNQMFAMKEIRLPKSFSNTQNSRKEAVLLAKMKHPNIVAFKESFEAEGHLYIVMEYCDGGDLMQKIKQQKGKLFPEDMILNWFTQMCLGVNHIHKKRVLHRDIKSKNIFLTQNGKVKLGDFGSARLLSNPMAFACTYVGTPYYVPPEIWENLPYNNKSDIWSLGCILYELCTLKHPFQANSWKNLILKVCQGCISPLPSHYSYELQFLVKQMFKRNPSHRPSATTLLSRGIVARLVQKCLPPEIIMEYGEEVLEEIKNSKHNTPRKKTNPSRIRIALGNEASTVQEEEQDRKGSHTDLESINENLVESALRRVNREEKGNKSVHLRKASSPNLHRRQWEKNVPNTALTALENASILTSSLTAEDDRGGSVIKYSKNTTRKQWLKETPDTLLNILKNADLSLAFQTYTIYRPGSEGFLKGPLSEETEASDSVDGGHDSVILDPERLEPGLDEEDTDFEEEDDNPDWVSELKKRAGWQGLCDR
human kinome (Homo sapiens, UniProt P51451), sequence (P51451 whole entry): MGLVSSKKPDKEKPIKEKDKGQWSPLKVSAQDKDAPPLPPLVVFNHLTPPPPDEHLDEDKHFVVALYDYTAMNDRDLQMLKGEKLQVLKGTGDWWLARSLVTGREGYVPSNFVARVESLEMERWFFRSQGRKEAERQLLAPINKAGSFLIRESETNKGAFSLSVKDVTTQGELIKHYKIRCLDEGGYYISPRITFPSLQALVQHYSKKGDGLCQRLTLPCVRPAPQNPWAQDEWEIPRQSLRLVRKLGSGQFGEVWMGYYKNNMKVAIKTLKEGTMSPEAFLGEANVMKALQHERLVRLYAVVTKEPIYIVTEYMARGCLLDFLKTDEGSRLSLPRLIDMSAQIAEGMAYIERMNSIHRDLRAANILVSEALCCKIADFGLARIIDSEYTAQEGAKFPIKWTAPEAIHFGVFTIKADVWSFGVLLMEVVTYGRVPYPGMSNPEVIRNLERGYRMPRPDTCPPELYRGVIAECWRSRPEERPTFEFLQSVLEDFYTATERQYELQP

COc1cc(F)ccc1-c1cc(Nc2cc(CS(C)(=N)=O)ccn2)ncc1F (stereo not drawn) [VIP152]
remaining binding at 1 µM (human kinome [1]): 80% | remaining binding at 0.1 µM (human kinome [2]; PRP4 (Entrez PRPF4B), 100 nM): 87% | remaining binding at 1 µM (human kinome [2]; kinase PRP4 (Entrez PRPF4B), compound concentration 1000 nM): 71% | remaining binding at 0.1 µM (human kinome [3]): 100% | remaining binding at 1 µM (human kinome [4]): 79% | remaining binding at 0.1 µM (human kinome [5]; PRKCE, 100 nM): 58% | remaining binding at 1 µM (human kinome [5]; kinase PRKCE (Entrez PRKCE), compound concentration 1000 nM): 99% | remaining binding at 1 µM (human kinome [6]): 68% | remaining binding at 0.1 µM (human kinome [7]): 73% | remaining binding at 0.1 µM (human kinome [8]): 100% | remaining binding at 0.1 µM (human kinome [9]): 90% | remaining binding at 0.1 µM (human kinome [10]): 100% | remaining binding at 0.1 µM (human kinome [11]): 100% | remaining binding at 0.1 µM (human kinome [12]; PRKG2, 100 nM): 100% | remaining binding at 1 µM (human kinome [12]; kinase PRKG2 (Entrez PRKG2), compound concentration 1000 nM): 100% | remaining binding at 1 µM (human kinome [13]): 91% | remaining binding at 0.1 µM (human kinome [14]): 100% | remaining binding at 0.1 µM (human kinome [15]; MYLK2, 100 nM): 100% | remaining binding at 1 µM (human kinome [15]; kinase MYLK2 (Entrez MYLK2), compound concentration 1000 nM): 91% | remaining binding at 1 µM (human kinome [16]): 100% | remaining binding at 0.1 µM (human kinome [17]): 99% | remaining binding at 0.1 µM (human kinome [18]): 100% | remaining binding at 0.1 µM (human kinome [19]; PIK3C2B, 100 nM): 100% | remaining binding at 1 µM (human kinome [19]; kinase PIK3C2B (Entrez PIK3C2B), compound concentration 1000 nM): 90% | remaining binding at 1 µM (human kinome [20]): 80% | remaining binding at 1 µM (human kinome [21]): 49% | remaining binding at 0.1 µM (human kinome [22]): 100% | remaining binding at 1 µM (human kinome [23]): 95% | remaining binding at 1 µM (human kinome [24]): 85% | remaining binding at 0.1 µM (human kinome [25]): 100% | remaining binding at 1 µM (human kinome [26]; kinase RSK2(Kin.Dom.1-N-terminal) (Entrez RPS6KA3)): 60% | remaining binding at 1 µM (human kinome [26]; kinase RSK2(Kin.Dom.2-C-terminal) (Entrez RPS6KA3)): 80% | remaining binding at 1 µM (human kinome [27]): 91% | remaining binding at 0.1 µM (human kinome [28]; NEK3, 100 nM): 98% | remaining binding at 1 µM (human kinome [28]; kinase NEK3 (Entrez NEK3), compound concentration 1000 nM): 62% | remaining binding at 0.1 µM (human kinome [29]): 100%
